Results published in the NIST ThermoML archive (doi:10.1016/j.jct.2016.07.015).
“And” between values parts separate entries of the source, which are not always exact repeats. Equal entries are not always repeated.

Conditions: Crystal, Calculated from knudsen effusion weight loss

COc1cc(CO)ccc1O [4-hydroxy-3-methoxybenzyl alcohol]
Conditions	vapor or sublimation pressure
332.19 K	0.000113 kPa and 0.0001121 kPa and 0.0001096 kPa
334.36 K	0.0001475 kPa and 0.0001466 kPa and 0.0001413 kPa
336.15 K	0.0001823 kPa and 0.0001755 kPa and 0.0001867 kPa
338.21 K	0.0002375 kPa and 0.0002339 kPa and 0.0002403 kPa
340.27 K	0.0003072 kPa and 0.0002982 kPa and 0.0003122 kPa
342.14 K	0.0003845 kPa and 0.0003697 kPa and 0.0003916 kPa
344.21 K	0.0005061 kPa and 0.0004935 kPa and 0.000506 kPa
346.27 K	0.0006422 kPa and 0.0006234 kPa and 0.0006502 kPa
348.13 K	0.0008066 kPa and 0.0007737 kPa and 0.0008145 kPa
350.15 K	0.001038 kPa and 0.001007 kPa and 0.001064 kPa
